Reference: US8658645B2, “Use of quinolone antibiotics” (Bayer Intellectual Property GmbH, priority 2003, dated 2014)
In brackets after ≈: the same amount, converted by molar mass. Read-outs that look alike come from different tables or passages of the source.

Assays:
[1] = tested on: Peptostreptococcus; test: Geometric mean MIC of anaerobic bacteria isolated from dogs and cats (in vitro); assay type: cell-based; conditions: N=4, isolated from dogs and cats, two in vitro studies, read-out: GMIC (geometric mean of the MIC values)
Description: (§1) Results of In Vitro Studies Geometric mean of the MIC values (Geometric Mean MIC; GMIC) of anaerobic bacteria isolated from dogs and cats compared to the standard metronidazole (μg/ml).

[2] = tested on: Bacteroides; test: as above; assay type: cell-based; conditions: N=37, isolated from dogs and cats, two in vitro studies, read-out: GMIC (geometric mean of the MIC values)
Description: as §1

[3] = tested on: Porphyromonas; test: as above; assay type: cell-based; conditions: N=8, isolated from dogs and cats, two in vitro studies, read-out: GMIC (geometric mean of the MIC values)
Description: as §1

[4] = tested on: Prevotella; test: as above; assay type: cell-based; conditions: N=25, isolated from dogs and cats, two in vitro studies, read-out: GMIC (geometric mean of the MIC values)
Description: as §1

[5] = tested on: Fusobacterium; test: as above; assay type: cell-based; conditions: N=11, isolated from dogs and cats, two in vitro studies, read-out: GMIC (geometric mean of the MIC values)
Description: as §1

[6] = tested on: parodontitis; test: Clinical study for the indication parodontitis; assay type: in vivo; conditions: female beagles, 3 mg/kg once per day for seven days
Description: Clinical Study for the Indication Parodontitis
The study was carried out using 16 female beagles. Pradofloxacin was administered in a dose of 3 mg/kg once per day over a period of seven days.

[7] = tested on: Porphyromonas gingivalis; test: In vitro MIC, parodontitis-causing bacteria; assay type: cell-based; conditions: two strains
Description: (§2) In this study, in each case two strains of the parodontitis-causing bacteria were isolated, and their sensitivity to pradofloxacin was determined in vitro (MIC μg/ml).

[8] = tested on: Eikenella corrodens; test: In vitro MIC, parodontitis-causing bacteria; assay type: cell-based; conditions: two strains
Description: as §2

[9] = tested on: Porphyromonas cansulci; test: In vitro MIC, parodontitis-causing bacteria; assay type: cell-based; conditions: Porphyromonas crevioricanis, two strains
Description: as §2

[10] = tested on: Campylobacter rectus; test: In vitro MIC, parodontitis-causing bacteria; assay type: cell-based; conditions: two strains
Description: as §2

[11] = tested on: Porphyromonas canons; test: In vitro MIC, parodontitis-causing bacteria; assay type: cell-based; conditions: two strains
Description: as §2

[12] = tested on: Capnocytophaga ochracea; test: In vitro MIC, parodontitis-causing bacteria; assay type: cell-based; conditions: two strains
Description: as §2

[13] = tested on: Prevotella intermedia; test: In vitro MIC, parodontitis-causing bacteria; assay type: cell-based; conditions: two strains
Description: as §2

[14] = tested on: Actinobacillus actinomycetemcomitans; test: In vitro MIC, parodontitis-causing bacteria; assay type: cell-based; conditions: Aggregatibacter actinomycetemcomitans, two strains
Description: as §2

[15] = tested on: Porphyromonas cangingivalis; test: In vitro MIC, parodontitis-causing bacteria; assay type: cell-based; conditions: two strains
Description: as §2

[16] = tested on: Fusobacterium nucleatum; test: In vitro MIC, parodontitis-causing bacteria; assay type: cell-based; conditions: two strains
Description: as §2

Structure (SMILES)	MIC [1]	MIC [2]	MIC [3]	MIC [4]	MIC [5]	total number of anaerobic bacteria in the periodontal pockets ([6]; after the treatment had ended, p<0.0001)	periodontal pocket depth (loss of attachment) ([6]; p=0.02)	total number of anaerobic bacteria in the periodontal pockets ([6]; three weeks after the treatment, day 28, p=0.0007)	MIC [7]	MIC [8]	MIC [9]	MIC [10]	MIC [11]	MIC [12]	MIC [13]	MIC [14]	MIC [15]	MIC ([15]; read-out: MIC)	MIC [16]	MIC ([16]; read-out: MIC)
Cc1ncc([N+](=O)[O-])n1CCO [metronidazole, reference compound]	0.8 µg/mL	0.7 µg/mL	0.3 µg/mL	0.4 µg/mL	1 µg/mL															
N#Cc1c(N2C[C@@H]3CCCN[C@@H]3C2)c(F)cc2c(=O)c(C(=O)O)cn(C3CC3)c12 [pradofloxacin, 8-cyano-1-cyclopropyl-7-((1S,6S)-2,8-diazabicyclo[4.3.0]nonan-8-yl)-6-fluoro-1,4-dihydro-4-oxo-3-quinolinecarboxylic acid]	0.4 µg/mL	0.4 µg/mL	0.1 µg/mL	0.2 µg/mL	0.5 µg/mL	reduced significantly	significant reduction	reduced significantly	< 0.25 µg/mL	< 0.25 µg/mL	< 0.25 µg/mL	< 0.25 µg/mL	< 0.25 µg/mL	< 0.25 µg/mL	< 0.25 µg/mL	< 0.25 µg/mL	1 µg/mL (≈ 2.52 µM)	0.5 µg/mL (≈ 1.26 µM)	1 µg/mL (≈ 2.52 µM)	0.5 µg/mL (≈ 1.26 µM)
